Laboratory results: publication PMC9151520 (Archives of Toxicology, 2022)
Where “and” joins values, the source holds several entries; their conditions need not be identical. Identical values can stand only once. Like-named read-outs stand apart in the source and are kept apart here.

Legend:
[1] = test system: p53RE-bla HCT-116 cells
[2] = test system: p53 signaling (p53RE-bla HCT-116 cells); assay: cells; format: cell-based
[3] = test system: p53 signaling (p53RE-bla HCT-116 cells)
[4] = test system: p53 signaling (p53RE-bla HCT-116 cells); remark: listed apart in the source
[5] = Homo sapiens, HCT-116, read-out: EC50, p53 activation, primary screening
[6] = Homo sapiens, HCT-116, read-out: Efficacy, p53 activation, primary screening
[7] = read-out: p53 activation EC50, cherry pick confirmation
[8] = Homo sapiens, HCT-116, read-out: p53 activation EC50, primary screening
[9] = Homo sapiens, HCT-116, read-out: p53 activation efficacy, cherry pick confirmation
[10] = Homo sapiens, HCT-116, read-out: p53 activation efficacy, primary screening
[11] = read-out: p53 activation EC50, primary screening

COC1=CC(=O)C[C@@H](C)[C@]12Oc1c(Cl)c(OC)cc(OC)c1C2=O [Griseofulvin]
41.2%: Emax [2, 6]
36.3 µM: EC50 [2, 5]
inactive: EC50, viability, cherry pick confirmation [1] | EC50, viability, primary screening [1] | Efficacy, viability, cherry pick confirmation [1] | Efficacy, viability, primary screening [1] | EC50, p53 activation, cherry pick confirmation [2] | Efficacy, p53 activation, cherry pick confirmation [2] | EC50, p53 activation, cherry pick confirmation [3] | EC50, p53 activation, primary screening [3] | Efficacy, p53 activation, cherry pick confirmation [3] | Efficacy, p53 activation, primary screening [3] | EC50, p53 activation, cherry pick confirmation [4] | EC50, p53 activation, primary screening [4] | Efficacy, p53 activation, cherry pick confirmation [4] | Efficacy, p53 activation, primary screening [4]

Chlorpyrifos oxon
inactive: Viability EC50 [1] | Viability efficacy [1] | p53 activation EC50 [2] | p53 activation efficacy [2] | p53 activation EC50 [4]
33.1727 and 49.6483: p53 activation efficacy [3]
2.91 µM: EC50 ([4]; read-out: p53 activation EC50)
0.02 µM: EC50 [3]

Tannic acid
41.698: p53 activation efficacy, primary screening [2]
inactive: Viability EC50, cherry pick confirmation [1] | Viability EC50, primary screening [1] | Viability efficacy, cherry pick confirmation [1] | Viability efficacy, primary screening [1] | p53 activation EC50, cherry pick confirmation [3] | p53 activation EC50, primary screening [3] | p53 activation efficacy, cherry pick confirmation [3] | p53 activation efficacy, primary screening [3] | p53 activation EC50, cherry pick confirmation [4] | p53 activation EC50, primary screening [4] | p53 activation efficacy, cherry pick confirmation [4] | p53 activation efficacy, primary screening [4]
7.77 µM: EC50 [2, 7]
97.9477: p53 activation efficacy, cherry pick confirmation [2]

Clc1ccc2cc3ccccc3cc2c1 [2-Chloroanthracene]
35.6 µM: EC50 ([2]; read-out: p53 activation EC50, No MS)
inactive: Viability EC50, HLM [1] | Viability EC50, No MS [1] | Viability EC50, RLM [1] | Viability Efficacy, HLM [1] | Viability Efficacy, No MS [1] | Viability Efficacy, RLM [1] | p53 activation EC50, RLM [3] | p53 activation EC50, HLM [4]
23.2 µM: EC50 ([4]; read-out: p53 activation EC50, HLM)
50.1 µM: EC50 ([3]; read-out: p53 activation EC50, RLM)
70.691% and 61.8737%: p53 activation Efficacy, No MS [2]

CNC(=O)c1ccccc1Sc1ccc2c(/C=C/c3ccccn3)n[nH]c2c1 [Axitinib]
56%: Emax [2, 9]
inactive: Viability EC50, cherry pick confirmation [1] | Viability EC50, primary screening [1] | Viability efficacy, cherry pick confirmation [1] | Viability efficacy, primary screening [1] | p53 activation EC50, cherry pick confirmation [3] | p53 activation EC50, primary screening [3] | p53 activation efficacy, cherry pick confirmation [3] | p53 activation efficacy, primary screening [3] | p53 activation EC50, cherry pick confirmation [4] | p53 activation EC50, primary screening [4] | p53 activation efficacy, cherry pick confirmation [4] | p53 activation efficacy, primary screening [4]
83.4%: Emax [2, 10]
1.41 µM: EC50 [2, 8]

O=C(c1ccccc1)c1ccccc1 [Benzophenone]
inactive: Viability EC50, cherry pick confirmation [1] | Viability EC50, primary screening [1] | Viability efficacy, cherry pick confirmation [1] | Viability efficacy, primary screening [1] | p53 activation EC50, cherry pick confirmation [2] | p53 activation EC50, primary screening [2] | p53 activation efficacy, cherry pick confirmation [2] | p53 activation efficacy, primary screening [2] | p53 activation EC50, cherry pick confirmation [3] | p53 activation efficacy, cherry pick confirmation [3] | p53 activation EC50, cherry pick confirmation [4] | p53 activation efficacy, cherry pick confirmation [4]

COC(=O)Nc1nc2ccc(Sc3ccccc3)cc2[nH]1 [Fenbendazole]
0.35 µM: EC50 [2, 5]
inactive: EC50, viability, cherry pick confirmation [1] | EC50, viability, primary screening [1] | Efficacy, viability, cherry pick confirmation [1] | Efficacy, viability, primary screening [1] | EC50, p53 activation, cherry pick confirmation [2] | Efficacy, p53 activation, cherry pick confirmation [2] | EC50, p53 activation, cherry pick confirmation [3] | EC50, p53 activation, primary screening [3] | Efficacy, p53 activation, cherry pick confirmation [3] | Efficacy, p53 activation, primary screening [3] | EC50, p53 activation, cherry pick confirmation [4] | EC50, p53 activation, primary screening [4] | Efficacy, p53 activation, cherry pick confirmation [4] | Efficacy, p53 activation, primary screening [4]
71%: Emax [2, 6]

CCC[S+]([O-])c1ccc2[nH]c(NC(=O)OC)nc2c1 (stereo not shown) [Albendazole oxide]
20.5 µM: EC50 ([2]; Homo sapiens, HCT-116, read-out: p53 activation EC50, cherry pick confirmation)
inactive: Viability EC50, cherry pick confirmation [1] | Viability EC50, primary screening [1] | Viability efficacy, cherry pick confirmation [1] | Viability efficacy, primary screening [1] | p53 activation EC50, cherry pick confirmation [3] | p53 activation EC50, primary screening [3] | p53 activation efficacy, cherry pick confirmation [3] | p53 activation efficacy, primary screening [3] | p53 activation EC50, cherry pick confirmation [4] | p53 activation EC50, primary screening [4] | p53 activation efficacy, cherry pick confirmation [4] | p53 activation efficacy, primary screening [4]
37.2%: Emax [2, 9]
33.8%: Emax [2, 10]
12.8 µM: EC50 [2, 8]

CCS(=O)(=O)CCSP(=O)(OC)OC [Demeton-S-methylsulphon]
inactive: Viability EC50 [1] | Viability efficacy [1] | p53 activation EC50 [2] | p53 activation efficacy [2] | p53 activation EC50 [4]
41.936 and 34.343: p53 activation efficacy [3]
11.8 µM: EC50 [3]

Potassium dichromate
14.9 µM: EC50 [2, 7]
47.8443: p53 activation efficacy, primary screening [2]
8.27 µM: EC50 [2, 11]
21.3 µM and 31 µM: EC50 ([1]; read-out: Viability EC50, primary screening)
34.6 µM and 20.2 µM: EC50 ([1]; read-out: Viability EC50, cherry pick confirmation)
inactive: Viability EC50, cherry pick confirmation [1] | Viability EC50, primary screening [1] | p53 activation EC50, cherry pick confirmation [3] | p53 activation EC50, primary screening [3] | p53 activation efficacy, cherry pick confirmation [3] | p53 activation efficacy, primary screening [3] | p53 activation EC50, cherry pick confirmation [4] | p53 activation EC50, primary screening [4] | p53 activation efficacy, cherry pick confirmation [4] | p53 activation efficacy, primary screening [4]

Acriflavine hydrochloride
5.41 µM: EC50 [2, 11]
281.114: p53 activation efficacy, cherry pick confirmation [2]
193.527: p53 activation efficacy, primary screening [2]
inactive: Viability EC50, cherry pick confirmation [1] | Viability EC50, primary screening [1] | Viability efficacy, cherry pick confirmation [1] | Viability efficacy, primary screening [1] | p53 activation EC50, cherry pick confirmation [3] | p53 activation EC50, primary screening [3] | p53 activation efficacy, cherry pick confirmation [3] | p53 activation efficacy, primary screening [3] | p53 activation EC50, cherry pick confirmation [4] | p53 activation EC50, primary screening [4] | p53 activation efficacy, cherry pick confirmation [4] | p53 activation efficacy, primary screening [4]
2.46 µM: EC50 [2, 7]
